This test concerns the target T1, S. cerevisiae adenylyl cyclase (Ras Dependent, strain FlD reconstituted with purified Ras) (Saccharomyces cerevisiae, UniProt P08678).
T1 construct: Since these membranes contain adenylyl cyclase, but are lacking Ras protein; endogenous in cells; host or cells: membranes of S. cerevisiae strain FlD
Briefly: Yeast adenylyl cyclase assay, reconstitution of FlD membranes with purified Ras protein. To be noted: part B, FlD membranes with 5 µM purified Ras protein, peptide 10 µM. The format is biochemical. An excerpt: Another Ras-dependent enzymatic assay was used to extend the observed ability of the peptides of the present invention to inhibit Ras function. This system, yeast adenylyl cyclase assay, measures the Ras-dependent conversion of ATP into cyclic AMP (cAMP). […] Furthermore, in S. cerevisiae, regulation of cAMP metabolism appears to be a major function of Ras. This assay system was used to extend the observed Ras inhibitory activity of the peptides of the present invention, to a Ras function which is GAP-unrelated. S. cerevisiae strain FlD lacks functional Ras proteins, however FlD cells have functional adenylyl cyclase in their cell membrane. […] Similarly, a recombinant S. cerevisiae strain MY1186, lacks yeast Ras proteins but expresses mammalian Ras protein which functions with adenylyl cyclase to regulate cAMP metabolisim in the yeast cells. […] In contrast, S. cerevisiae strain JC377-10B contains a mutant form of adenylyl cyclase which constitutively converts ATP into cAMP with or without Ras.
Ras peptides were tested at the indicated concentrations for inhibition of S. cerevisiae adenylyl cyclase activity. […] Ras-independent activity was assayed with membranes from strain JC377-10B (ras-minus, constitutively active adenylyl cyclase).
Yeast strain FlD, MY1186 and JC377-10B, were grown in YEHD medium at 30°C. Membrane fractions were prepared from cultures grown to an A₆₆₀ of 0.5 to 1.0 by glusulase digestion [Casperson, G.F. et al., (1983), J. Biol. Chem., 258, pp. 7911-7914], Dounce homogenization of the spheroplasts in buffer containing 50 mM sodium MES [2(N-morpholino) ethanesulfonic acid] […] Adenylyl cyclase assays (100-µL reaction volume) measured the conversion of [α-³²P]ATP to [³²P]cAMP at 30°C, using 50 µg to 100 µg of membrane protein in assays using membranes from yeast strains MY1186 and JC377-10B.. […] Since these membranes contain adenylyl cyclase, but are lacking Ras protein, stimulation of adenylyl cyclase activity may be measured following reconstitution with purified Ras complexed with GTP. […]

No end group written: not given here.

1 sequence from patent publication EP0496162A2, “Peptide inhibitors of RAS-GAP interaction” (MERCK & CO. INC., priority 1990, dated 1992) can be followed below.

T1 sequence (P08678 whole entry): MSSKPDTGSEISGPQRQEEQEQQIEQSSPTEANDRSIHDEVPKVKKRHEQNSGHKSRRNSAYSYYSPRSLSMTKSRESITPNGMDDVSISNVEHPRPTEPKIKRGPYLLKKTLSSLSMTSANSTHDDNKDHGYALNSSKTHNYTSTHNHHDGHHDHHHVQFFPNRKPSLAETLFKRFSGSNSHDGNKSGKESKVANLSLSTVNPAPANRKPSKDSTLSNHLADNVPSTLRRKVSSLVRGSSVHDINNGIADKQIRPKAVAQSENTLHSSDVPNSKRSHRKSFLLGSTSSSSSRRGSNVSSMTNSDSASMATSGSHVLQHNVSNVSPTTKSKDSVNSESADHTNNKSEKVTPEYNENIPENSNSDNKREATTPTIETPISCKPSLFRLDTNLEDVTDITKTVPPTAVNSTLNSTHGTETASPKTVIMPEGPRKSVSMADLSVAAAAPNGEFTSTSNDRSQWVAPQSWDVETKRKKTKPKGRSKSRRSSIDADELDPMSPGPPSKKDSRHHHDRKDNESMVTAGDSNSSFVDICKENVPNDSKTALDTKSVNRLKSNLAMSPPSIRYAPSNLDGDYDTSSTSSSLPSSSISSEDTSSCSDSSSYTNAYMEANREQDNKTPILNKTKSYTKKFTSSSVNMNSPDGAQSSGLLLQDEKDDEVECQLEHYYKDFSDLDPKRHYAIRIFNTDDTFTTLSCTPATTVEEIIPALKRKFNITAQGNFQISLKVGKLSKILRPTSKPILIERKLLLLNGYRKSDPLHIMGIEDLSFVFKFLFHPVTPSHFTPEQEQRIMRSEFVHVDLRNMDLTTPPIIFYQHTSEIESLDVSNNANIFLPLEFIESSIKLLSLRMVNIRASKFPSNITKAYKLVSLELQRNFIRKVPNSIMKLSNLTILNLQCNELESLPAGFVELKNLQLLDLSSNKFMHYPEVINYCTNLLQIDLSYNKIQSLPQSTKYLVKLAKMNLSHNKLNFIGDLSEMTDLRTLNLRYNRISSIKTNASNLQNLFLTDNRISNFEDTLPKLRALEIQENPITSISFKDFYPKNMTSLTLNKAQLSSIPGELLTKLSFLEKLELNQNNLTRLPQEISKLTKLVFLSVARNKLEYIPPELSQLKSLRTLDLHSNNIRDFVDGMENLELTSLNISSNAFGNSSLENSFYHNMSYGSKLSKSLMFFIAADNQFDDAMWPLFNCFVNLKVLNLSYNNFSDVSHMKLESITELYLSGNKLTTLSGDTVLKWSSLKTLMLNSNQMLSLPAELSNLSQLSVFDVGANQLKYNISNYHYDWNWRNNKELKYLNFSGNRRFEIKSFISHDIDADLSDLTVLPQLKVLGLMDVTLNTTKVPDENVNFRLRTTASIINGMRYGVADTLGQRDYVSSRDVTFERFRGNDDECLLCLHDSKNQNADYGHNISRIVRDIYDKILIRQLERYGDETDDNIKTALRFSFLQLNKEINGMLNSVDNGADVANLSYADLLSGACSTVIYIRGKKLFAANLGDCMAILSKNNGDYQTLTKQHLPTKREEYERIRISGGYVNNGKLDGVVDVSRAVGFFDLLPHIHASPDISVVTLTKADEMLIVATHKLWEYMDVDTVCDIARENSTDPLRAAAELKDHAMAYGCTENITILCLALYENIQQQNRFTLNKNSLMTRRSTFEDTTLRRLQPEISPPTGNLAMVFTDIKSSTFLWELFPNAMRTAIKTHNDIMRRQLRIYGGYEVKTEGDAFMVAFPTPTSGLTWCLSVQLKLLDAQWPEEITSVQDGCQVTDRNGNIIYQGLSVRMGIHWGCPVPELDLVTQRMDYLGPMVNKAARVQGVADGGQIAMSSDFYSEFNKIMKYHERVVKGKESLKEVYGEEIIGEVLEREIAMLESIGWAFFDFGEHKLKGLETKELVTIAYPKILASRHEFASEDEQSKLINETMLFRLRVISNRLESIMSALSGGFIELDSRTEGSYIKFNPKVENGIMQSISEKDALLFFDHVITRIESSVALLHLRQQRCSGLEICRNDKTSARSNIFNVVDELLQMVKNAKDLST

Take “GQEEYSAMRDQYMRTGE [Ras 60-76, reference compound]”: the “%Inhibition of Adenylyl Cyclase Activity Ras Dependent” value was 6 ± 1%.
